# Test results reported in patent publication US20110076293A1, “TRIPTOLIDE DERIVATIVES FOR MODULATION OF APOPTOSIS AND IMMUNOSUPPRESSION” (priority 2002, published 2011).
# Where a name gives a salt, the structure may show the parent alone. Read-outs that look alike come from different tables or passages of the source.
# Tests used:
# [1] = test system: Jurkat human T lymphocyte cell line; test: Apoptosis assay (Annexin V) of compounds incubated with human serum; conditions: for EC50: Homo sapiens, Jurkat; for % apoptotic cells at given concentration (nM): Table 4
# Experimental: (§1) Compounds of formula I, as shown in Table 1 above and in the Examples, were assayed for their capacity to induce apoptosis in cells from the Jurkat human T lymphocyte cell line, after incubation with pooled human serum for varying periods of time at 37° C. (see Example 19). An ester prodrug, triptolide-14-succinate, designated PG490-88, was included for comparison. The extent of conversion to triptolide after such incubation was also independently determined by HPLC analysis.
# The ED50 values (column 3) are calculated directly from the data in each experiment, and the % conversion values (column 4) are calculated as percent of the ED50 value produced by triptolide, designated PG490, incubated in the same plasma (i.e. in the same experiment).
# A. Incubation of compounds with human serum. Pooled human serum was stored in aliquots at −80° C. Test compounds were added at 20 mM to thawed human serum in 1.5 ml microfuge tubes and incubated at 37° C. in a water bath for varying periods of time. The test samples were placed on ice until dilution for the bioassay. Controls consisted of the compounds incubated in complete tissue culture medium (RPMI 1640 medium plus 5% heat-inactivated fetal calf serum, 1% HEPES, 1% pen/strep, 1% glutamine) rather than human serum.
# B. Apoptosis assay of compounds incubated with human serum. Test samples were diluted to 1 mM in complete tissue culture medium. Aliquots were placed in microculture plates and serial dilutions were prepared so that the final concentration would encompass the range of 1 to 10,000 nM with half-log increments. Cells from an exponentially expanding culture of the Jurkat human T lymphocyte cell line (#TIB-152 obtained from American Type Culture Collection, Manassas, Va.) were harvested, washed once by centrifugation and dilution in complete tissue culture medium, and diluted to a concentration of 1×10^6 cells/ml. A volume of 100 μl of Jurkat cells (1×10^5 cells) was added to wells containing 100 μl of the diluted compounds, and the plates were incubated at 37° C. in a 5% CO2 incubator. After 24 hours, the plates were centrifuged to pellet the cells, and the cells were washed twice with 2% heat-inactivated fetal calf serum in PBS. To each well, 500 ul of binding buffer was added according to the Annexin V assay procedure (BioVision, Inc., Mountain View, Calif.). Next, 5 μl of the fluorescein isothiocyanate (FITC) conjugate of Annexin V (BioVision, Inc.) was added to each well, followed by 5 minutes of incubation in the dark. In some assays, propidium iodide (BioVision, Inc.) was added at this stage to check for necrotic cells. The contents of the wells were individually transferred into test tubes, and apoptosis was analyzed using a FACSCalibur flow cytometer (BD Immunocytometry Systems, San Jose, Calif.). Cells positive for Annexin V binding were considered to be apoptotic, and the data were calculated as percent apoptotic cells.
# (§2) C. Comparison of bioactivities after incubation of compounds in human serum. The data were plotted as the concentration of compound incubated in serum versus percent apoptotic cells. The concentration of compound inducing 50% apoptosis (ED50) was calculated from these dose response curves. […] This percentage conversion was used to compare the bioactivity of various compounds after incubation in human serum.
# [2] = test system: IL-2 production in Jurkat human T lymphocyte cells; test: IL-2 production assay for activity of compounds incubated with human serum; conditions: for IC50: IL-2 production in Jurkat cells after incubation with pooled human serum for 48 hours at 37° C.; for Conversion (%): percent of the IC50 value produced by triptolide (PG490) in the same experiment, human serum 48 hours; for bioactivity in IL-2 inhibition assays (in words): FIGS. 4-5; for IL-2 pg/mL at given concentration (nM): Table 8, Jurkat cells
# Experimental: Several compounds of formula I were analyzed for their capacity to inhibit IL-2 production in Jurkat human T lymphocyte cells, after incubation with pooled human serum for 48 hours at 37° C. (see Example 20). An ester prodrug, triptolide-14-succinate, designated PG490-88, was included for comparison.
# The IC50 values (column 1) are calculated directly from the data in each experiment. The % conversion values (column 2) are calculated as the percent of the IC50 value produced by triptolide, designated PG490, incubated in the same plasma (i.e. in the same experiment).
# A. IL-2 production assay for activity of compounds incubated with human serum. Test samples were diluted to 1 mM in complete tissue culture medium. […] Cells from an exponentially expanding culture of the Jurkat human T lymphocyte cell line (#TIB-152 obtained from American Type Culture Collection, Manassas, Va.) were harvested, washed once by centrifugation and dilution in complete tissue culture medium, and diluted to a concentration of 2×10^6 cells/ml. A volume of 50 μl of Jurkat cells (1×10^5 cells) was added to wells containing 100 μl of the diluted compounds, 50 μl of PMA (10 ng/ml) was added to each well, and the plates were incubated at 37° C. in a 5% CO2 incubator. After 24 hours, the plates were centrifuged to pellet the cells, 150 μl of supernatant was removed from each well, and the samples were stored at −20° C. The stored supernatants were analyzed for human IL-2 concentration using the Luminex 100 (Luminex Corporation, Austin, Tex.), Luminex microspheres coupled with anti-IL-2 capture antibody, and fluorochrome-coupled anti-IL-2 detection antibody. The data were expressed as ng/ml of IL-2.
# as §2, with “B.” for “C.”, “IL-2 concentration.” for “percent apoptotic cells.”, “inducing a” for “inducing”, “decrease in the IL-2 concentration (IC50)” for “apoptosis (ED50)”
# in vitro = conditions: for half-life: human, plasma; for max. conversion at 48 hr in human plasma by HPLC: incomplete conversion to triptolide, 48 hr incubation
# Experimental: as §1
# Prodrug conversions to triptolide as determined independently by HPLC are given in […].
# [3] = 48 h, read-out: ED50 (nM) in apoptosis assay after incubation with serum, incubation time in human serum 48 hours, 37° C.
# [4] = incubation time in human serum 48 hours
compound,measurement,setting,value
"COC(=O)COC(=O)O[C@@H]1[C@@]2(C(C)C)O[C@H]2[C@@H]2O[C@]23[C@]12O[C@H]2C[C@H]1C2=C(CC[C@@]13C)C(=O)OC2 [PG680, Triptolide 14-Methoxycarbonylmethyl Carbonate]",EC50,[1]; [3],58 nM
same,"Conversion, as relative ED50 compared to triptolide (%)",[1]; [4],85%
same,IC50,"[2]; Homo sapiens, Jurkat, 48 h",3 nM
same,Conversion (%),[2],44%
same,half-life,in vitro,9 min
"CC(C)[C@]12O[C@H]1[C@@H]1O[C@]13[C@]1(O[C@H]1C[C@H]1C4=C(CC[C@@]13C)C(=O)OC4)[C@@H]2OC(=O)Oc1ccccc1 [PG676, Triptolide 14-Phenyl Carbonate]",EC50,[1]; [3],56 nM
same,"Conversion, as relative ED50 compared to triptolide (%)",[1]; [4],96%
same,IC50,"[2]; Homo sapiens, Jurkat, 48 h",6 nM
same,Conversion (%),[2],84%
same,half-life,in vitro,15 min
"CC(C)[C@]12O[C@H]1[C@@H]1O[C@]13[C@]1(O[C@H]1C[C@H]1C4=C(CC[C@@]13C)C(=O)OC4)[C@@H]2OC(=O)OCC(=O)O [PG687tris, Tris(hydroxymethyl)aminomethane Salt of Triptolide 14-Hydroxycarbonyl-methyl Carbonate]",EC50,[1]; [3],960 nM
same,"Conversion, as relative ED50 compared to triptolide (%)",[1]; [4],6%
same,IC50,"[2]; Homo sapiens, Jurkat, 48 h",29 nM
same,Conversion (%),[2],6%
same,max. conversion at 48 hr in human plasma by HPLC,in vitro,max. 10% at
"CCOC(=O)O[C@@H]1[C@@]2(C(C)C)O[C@H]2[C@@H]2O[C@]23[C@]12O[C@H]2C[C@H]1C2=C(CC[C@@]13C)C(=O)OC2 [PG674, Triptolide 14-Ethyl Carbonate]",EC50,"[1]; 0.5 h, read-out: ED50 (nM) in apoptosis assay after incubation with serum, incubation time in human serum 0.5 hours, 37° C.",27 nM
same,EC50,"[1]; 1 h, read-out: ED50 (nM) in apoptosis assay after incubation with serum, incubation time in human serum 1 hour, 37° C.",55 nM
same,EC50,"[1]; 24 h, read-out: ED50 (nM) in apoptosis assay after incubation with serum, incubation time in human serum 24 hours, 37° C.",60 nM
same,EC50,[1]; [3],65 nM
same,"Conversion, as relative ED50 compared to triptolide (%)",[1]; incubation time in human serum 0.5 hours,188%
same,"Conversion, as relative ED50 compared to triptolide (%)",[1]; incubation time in human serum 1 hour,98%
same,"Conversion, as relative ED50 compared to triptolide (%)",[1]; incubation time in human serum 24 hours,97%
same,"Conversion, as relative ED50 compared to triptolide (%)",[1]; [4],100%
same,half-life,in vitro,12 min
"CC(C)[C@]12O[C@H]1[C@@H]1O[C@]13[C@]1(O[C@H]1C[C@H]1C4=C(CC[C@@]13C)C(=O)OC4)[C@@H]2OC(=O)Nc1ccccc1 [PG671, Triptolide 14-Phenyl Carbamate]",conversion in human serum (in words),[1],less readily converted
same,% apoptotic cells at given concentration (nM),"[1]; medium, 10000 nM",13.7%
same,% apoptotic cells at given concentration (nM),"[1]; serum, 0 hr, 10000 nM",10.2%
same,% apoptotic cells at given concentration (nM),"[1]; serum, 48 hr, 0.03 nM",42.5%
same,% apoptotic cells at given concentration (nM),"[1]; serum, 48 hr, 0.1 nM",43.3%
same,% apoptotic cells at given concentration (nM),"[1]; serum, 48 hr, 0.3 nM",43.9%
same,% apoptotic cells at given concentration (nM),"[1]; serum, 48 hr, 1 nM",44.2%
same,% apoptotic cells at given concentration (nM),"[1]; serum, 48 hr, 3 nM",43.2%
same,% apoptotic cells at given concentration (nM),"[1]; serum, 48 hr, 10 nM",42.4%
same,% apoptotic cells at given concentration (nM),"[1]; serum, 48 hr, 30 nM",44.7%
same,% apoptotic cells at given concentration (nM),"[1]; serum, 48 hr, 100 nM",43.5%
same,% apoptotic cells at given concentration (nM),"[1]; serum, 48 hr, 300 nM",43.1%
same,% apoptotic cells at given concentration (nM),"[1]; serum, 48 hr, 1000 nM",43.0%
same,% apoptotic cells at given concentration (nM),"[1]; serum, 48 hr, 3000 nM",43.3%
same,% apoptotic cells at given concentration (nM),"[1]; serum, 48 hr, 10000 nM",15.4%
same,bioactivity in IL-2 inhibition assays (in words),[2],some level of bioactivity
same,IL-2 pg/mL at given concentration (nM),[2]; 0.0001 nM,96.4 pg/mL
same,IL-2 pg/mL at given concentration (nM),[2]; 0.001 nM,102.7 pg/mL
same,IL-2 pg/mL at given concentration (nM),[2]; 0.01 nM,99.7 pg/mL
same,IL-2 pg/mL at given concentration (nM),[2]; 0.1 nM,114.7 pg/mL
same,IL-2 pg/mL at given concentration (nM),[2]; 1 nM,106.1 pg/mL
same,IL-2 pg/mL at given concentration (nM),[2]; 10 nM,90.7 pg/mL
same,IL-2 pg/mL at given concentration (nM),[2]; 100 nM,77.9 pg/mL
same,IL-2 pg/mL at given concentration (nM),[2]; 1000 nM,48.7 pg/mL
same,IL-2 pg/mL at given concentration (nM),[2]; 10000 nM,8.8 pg/mL
"CC(C)[C@]12O[C@H]1[C@@H]1O[C@]13[C@]1(O[C@H]1C[C@H]1C4=C(CC[C@@]13C)C(=O)OC4)[C@@H]2OC(=O)OCC(=O)[O-].[Na+] [PG687Na, Sodium Salt of Triptolide 14-Hydroxycarbonylmethyl Carbonate]",IC50,[2],92 nM
same,Conversion (%),[2],1%
same,max. conversion at 48 hr in human plasma by HPLC,in vitro,10%
"CC(C)[C@]12O[C@H]1[C@@H]1O[C@]13[C@]1(O[C@H]1C[C@H]1C4=C(CC[C@@]13C)C(=O)OC4)[C@@H]2OC(=O)N1CCN(C)CC1 [PG672, N-methylpiperazinecarbonyl (carbamate)]",conversion in human serum (in words),[1],less readily converted
same,% apoptotic cells at given concentration (nM),"[1]; medium, 10000 nM",48.6%
same,% apoptotic cells at given concentration (nM),"[1]; serum, 0 hr, 10000 nM",47.6%
same,% apoptotic cells at given concentration (nM),"[1]; serum, 48 hr, 0.03 nM",42.7%
same,% apoptotic cells at given concentration (nM),"[1]; serum, 48 hr, 0.1 nM",45.2%
same,% apoptotic cells at given concentration (nM),"[1]; serum, 48 hr, 0.3 nM",45.4%
same,% apoptotic cells at given concentration (nM),"[1]; serum, 48 hr, 1 nM",45.9%
same,% apoptotic cells at given concentration (nM),"[1]; serum, 48 hr, 3 nM",45.3%
same,% apoptotic cells at given concentration (nM),"[1]; serum, 48 hr, 10 nM",46.0%
same,% apoptotic cells at given concentration (nM),"[1]; serum, 48 hr, 30 nM",46.8%
same,% apoptotic cells at given concentration (nM),"[1]; serum, 48 hr, 100 nM",46.6%
same,% apoptotic cells at given concentration (nM),"[1]; serum, 48 hr, 300 nM",42.3%
same,% apoptotic cells at given concentration (nM),"[1]; serum, 48 hr, 1000 nM",43.7%
same,% apoptotic cells at given concentration (nM),"[1]; serum, 48 hr, 3000 nM",44.9%
same,% apoptotic cells at given concentration (nM),"[1]; serum, 48 hr, 10000 nM",63.2%
same,apoptotic activity (in words),[1]; after 48 hr. incubation in human serum,activity at high concentrations
same,bioactivity in IL-2 inhibition assays (in words),[2],some level of bioactivity
same,IL-2 pg/mL at given concentration (nM),[2]; 0.0001 nM,103.3 pg/mL
same,IL-2 pg/mL at given concentration (nM),[2]; 0.001 nM,90.8 pg/mL
same,IL-2 pg/mL at given concentration (nM),[2]; 0.01 nM,99.1 pg/mL
same,IL-2 pg/mL at given concentration (nM),[2]; 0.1 nM,117.1 pg/mL
same,IL-2 pg/mL at given concentration (nM),[2]; 1 nM,91.4 pg/mL
same,IL-2 pg/mL at given concentration (nM),[2]; 10 nM,99.1 pg/mL
same,IL-2 pg/mL at given concentration (nM),[2]; 100 nM,64.6 pg/mL
same,IL-2 pg/mL at given concentration (nM),[2]; 1000 nM,26.8 pg/mL
same,IL-2 pg/mL at given concentration (nM),[2]; 10000 nM,8.7 pg/mL
